Common to all, as to assay: biochemical
Assay type in all cases: biochemical

The target of test [1] is 363 human kinases (including Aurora A/B/C) (Homo sapiens, UniProt Q6DT37). The settings on record: DMPK2, [ATP] 2.5 µM; for remaining activity at 0.5 µM / remaining activity at 0.1 µM: read-out: % Enzyme Activity (relative to DMSO controls); for remaining activity at 0.1 µM: 100 nM.
Source text: (§1) However, the Aurora A/B selectivity ratios derived from our in vitro and in vivo data can be compared to prioritize inhibitors.
The target in test [2] is T1, 363 human kinases (including Aurora A/B/C) (Homo sapiens, UniProt Q9UPZ9).
T1 sequence (Q9UPZ9 1-632): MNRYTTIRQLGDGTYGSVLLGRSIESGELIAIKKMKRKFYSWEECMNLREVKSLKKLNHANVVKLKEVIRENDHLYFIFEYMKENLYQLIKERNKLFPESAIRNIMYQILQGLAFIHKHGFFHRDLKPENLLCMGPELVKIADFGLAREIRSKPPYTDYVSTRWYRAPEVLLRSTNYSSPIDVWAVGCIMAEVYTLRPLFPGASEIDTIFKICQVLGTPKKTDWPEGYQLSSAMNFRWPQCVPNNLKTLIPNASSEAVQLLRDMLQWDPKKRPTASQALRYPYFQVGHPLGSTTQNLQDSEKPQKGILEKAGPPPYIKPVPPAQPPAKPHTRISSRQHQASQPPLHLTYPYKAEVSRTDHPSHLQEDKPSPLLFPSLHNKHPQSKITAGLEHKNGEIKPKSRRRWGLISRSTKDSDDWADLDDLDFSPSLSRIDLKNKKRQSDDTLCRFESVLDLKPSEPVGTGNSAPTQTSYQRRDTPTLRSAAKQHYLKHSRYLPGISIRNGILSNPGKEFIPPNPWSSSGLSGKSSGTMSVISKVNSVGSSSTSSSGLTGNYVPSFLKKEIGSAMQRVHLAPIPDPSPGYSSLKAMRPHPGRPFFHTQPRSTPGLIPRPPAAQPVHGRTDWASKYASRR
To be noted: LCK2/ICK; for remaining activity at 0.5 µM / remaining activity at 0.1 µM: read-out: % Enzyme Activity (relative to DMSO controls); for remaining activity at 0.1 µM: 100 nM.
Source text: as §1

Test [3] concerns the target 363 human kinases (including Aurora A/B/C) (Homo sapiens, UniProt P27448). The settings on record: MARK3; for remaining activity at 0.5 µM / remaining activity at 0.1 µM: read-out: % Enzyme Activity (relative to DMSO controls); for remaining activity at 0.1 µM: 100 nM.
Source text: as §1
The target of test [4] is 363 human kinases (including Aurora A/B/C) (Homo sapiens, UniProt P49840). To be noted: GSK3a; for remaining activity at 0.5 µM / remaining activity at 0.1 µM: read-out: % Enzyme Activity (relative to DMSO controls); for remaining activity at 0.1 µM: 100 nM.
Chain of 363 human kinases (including Aurora A/B/C) (Homo sapiens, UniProt P49840) (P49840 whole entry): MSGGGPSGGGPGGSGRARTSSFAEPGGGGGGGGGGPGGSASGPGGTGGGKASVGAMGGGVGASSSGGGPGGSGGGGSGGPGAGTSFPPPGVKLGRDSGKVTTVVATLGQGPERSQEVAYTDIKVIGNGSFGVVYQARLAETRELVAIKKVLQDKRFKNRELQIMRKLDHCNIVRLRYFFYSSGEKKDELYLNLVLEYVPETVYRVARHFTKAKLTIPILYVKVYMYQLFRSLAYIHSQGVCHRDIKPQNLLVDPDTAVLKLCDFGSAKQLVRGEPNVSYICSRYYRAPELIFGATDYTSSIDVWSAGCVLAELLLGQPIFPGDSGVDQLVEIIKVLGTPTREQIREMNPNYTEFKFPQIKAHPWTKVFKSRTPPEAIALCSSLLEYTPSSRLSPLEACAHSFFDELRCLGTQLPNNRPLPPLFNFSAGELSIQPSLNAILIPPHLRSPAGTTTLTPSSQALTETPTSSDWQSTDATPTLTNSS
Source text: as §1
Test [5] concerns the target T2, 363 human kinases (including Aurora A/B/C) (Homo sapiens, UniProt Q6P3R8).
T2 sequence (Q6P3R8 1-708): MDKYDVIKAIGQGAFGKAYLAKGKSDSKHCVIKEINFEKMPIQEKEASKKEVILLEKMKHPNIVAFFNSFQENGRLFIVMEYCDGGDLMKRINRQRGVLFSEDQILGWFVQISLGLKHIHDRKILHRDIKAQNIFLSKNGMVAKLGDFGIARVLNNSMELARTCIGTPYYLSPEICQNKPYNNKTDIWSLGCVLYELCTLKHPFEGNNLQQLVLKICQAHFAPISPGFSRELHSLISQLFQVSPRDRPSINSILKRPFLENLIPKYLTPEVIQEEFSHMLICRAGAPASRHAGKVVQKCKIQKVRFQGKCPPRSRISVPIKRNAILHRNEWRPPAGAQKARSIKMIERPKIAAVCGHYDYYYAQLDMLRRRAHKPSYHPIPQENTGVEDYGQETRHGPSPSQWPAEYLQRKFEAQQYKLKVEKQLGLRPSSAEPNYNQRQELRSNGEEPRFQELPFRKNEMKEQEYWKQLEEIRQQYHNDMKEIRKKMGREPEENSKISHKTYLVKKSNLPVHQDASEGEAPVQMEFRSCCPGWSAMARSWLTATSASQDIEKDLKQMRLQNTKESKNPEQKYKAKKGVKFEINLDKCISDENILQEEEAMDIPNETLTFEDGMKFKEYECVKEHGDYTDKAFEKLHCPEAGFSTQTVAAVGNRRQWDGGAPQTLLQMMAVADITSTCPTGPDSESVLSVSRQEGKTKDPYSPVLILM
The settings on record: NEK5; for remaining activity at 0.5 µM / remaining activity at 0.1 µM: read-out: % Enzyme Activity (relative to DMSO controls); for remaining activity at 0.1 µM: 100 nM.
Source text: as §1

The target of test [6] is T3, 363 human kinases (including Aurora A/B/C) (Homo sapiens, UniProt Q15139).
T3 sequence (Q15139 1-912): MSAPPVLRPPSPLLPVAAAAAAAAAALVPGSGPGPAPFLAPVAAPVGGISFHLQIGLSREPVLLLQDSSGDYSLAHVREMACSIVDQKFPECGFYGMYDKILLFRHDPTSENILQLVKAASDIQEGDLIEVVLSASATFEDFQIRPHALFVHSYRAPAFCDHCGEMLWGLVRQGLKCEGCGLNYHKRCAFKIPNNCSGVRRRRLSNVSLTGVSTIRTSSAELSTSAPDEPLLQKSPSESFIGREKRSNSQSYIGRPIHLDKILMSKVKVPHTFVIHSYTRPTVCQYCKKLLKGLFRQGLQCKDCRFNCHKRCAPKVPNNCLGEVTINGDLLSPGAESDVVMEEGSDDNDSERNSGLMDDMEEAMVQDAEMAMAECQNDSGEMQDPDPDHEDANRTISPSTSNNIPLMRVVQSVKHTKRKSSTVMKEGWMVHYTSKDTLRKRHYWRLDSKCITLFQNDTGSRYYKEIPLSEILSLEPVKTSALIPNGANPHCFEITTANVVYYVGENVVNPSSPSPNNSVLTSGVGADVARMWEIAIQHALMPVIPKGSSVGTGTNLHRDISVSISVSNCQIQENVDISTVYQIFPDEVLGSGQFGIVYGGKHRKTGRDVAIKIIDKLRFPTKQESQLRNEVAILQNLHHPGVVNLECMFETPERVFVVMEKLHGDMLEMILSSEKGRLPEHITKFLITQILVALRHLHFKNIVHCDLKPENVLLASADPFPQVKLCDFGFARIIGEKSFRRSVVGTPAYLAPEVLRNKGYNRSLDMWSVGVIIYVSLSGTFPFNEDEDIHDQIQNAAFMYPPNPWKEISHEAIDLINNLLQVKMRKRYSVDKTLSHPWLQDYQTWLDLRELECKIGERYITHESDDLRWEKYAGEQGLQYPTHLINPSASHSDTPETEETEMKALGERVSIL
To be noted: PKCmu/PRKD1; for remaining activity at 0.5 µM / remaining activity at 0.1 µM: read-out: % Enzyme Activity (relative to DMSO controls); for remaining activity at 0.1 µM: 100 nM.
Source text: as §1

Test [7] concerns the target 363 human kinases (including Aurora A/B/C) (Homo sapiens, UniProt P05129). To be noted: PKCg; for remaining activity at 0.5 µM / remaining activity at 0.1 µM: read-out: % Enzyme Activity (relative to DMSO controls); for remaining activity at 0.1 µM: 100 nM.
Source text: as §1
Test [8] concerns the target 363 human kinases (including Aurora A/B/C) (Homo sapiens, UniProt P08069). The settings on record: IGF1R; for remaining activity at 0.5 µM / remaining activity at 0.1 µM: read-out: % Enzyme Activity (relative to DMSO controls); for remaining activity at 0.1 µM: 100 nM.
Source text: as §1
The target in test [9] is 363 human kinases (including Aurora A/B/C) (Homo sapiens, UniProt P35916). To be noted: for remaining activity at 0.5 µM / remaining activity at 0.1 µM: read-out: % Enzyme Activity (relative to DMSO controls).
Chain of 363 human kinases (including Aurora A/B/C) (Homo sapiens, UniProt P35916) (P35916 25-1363): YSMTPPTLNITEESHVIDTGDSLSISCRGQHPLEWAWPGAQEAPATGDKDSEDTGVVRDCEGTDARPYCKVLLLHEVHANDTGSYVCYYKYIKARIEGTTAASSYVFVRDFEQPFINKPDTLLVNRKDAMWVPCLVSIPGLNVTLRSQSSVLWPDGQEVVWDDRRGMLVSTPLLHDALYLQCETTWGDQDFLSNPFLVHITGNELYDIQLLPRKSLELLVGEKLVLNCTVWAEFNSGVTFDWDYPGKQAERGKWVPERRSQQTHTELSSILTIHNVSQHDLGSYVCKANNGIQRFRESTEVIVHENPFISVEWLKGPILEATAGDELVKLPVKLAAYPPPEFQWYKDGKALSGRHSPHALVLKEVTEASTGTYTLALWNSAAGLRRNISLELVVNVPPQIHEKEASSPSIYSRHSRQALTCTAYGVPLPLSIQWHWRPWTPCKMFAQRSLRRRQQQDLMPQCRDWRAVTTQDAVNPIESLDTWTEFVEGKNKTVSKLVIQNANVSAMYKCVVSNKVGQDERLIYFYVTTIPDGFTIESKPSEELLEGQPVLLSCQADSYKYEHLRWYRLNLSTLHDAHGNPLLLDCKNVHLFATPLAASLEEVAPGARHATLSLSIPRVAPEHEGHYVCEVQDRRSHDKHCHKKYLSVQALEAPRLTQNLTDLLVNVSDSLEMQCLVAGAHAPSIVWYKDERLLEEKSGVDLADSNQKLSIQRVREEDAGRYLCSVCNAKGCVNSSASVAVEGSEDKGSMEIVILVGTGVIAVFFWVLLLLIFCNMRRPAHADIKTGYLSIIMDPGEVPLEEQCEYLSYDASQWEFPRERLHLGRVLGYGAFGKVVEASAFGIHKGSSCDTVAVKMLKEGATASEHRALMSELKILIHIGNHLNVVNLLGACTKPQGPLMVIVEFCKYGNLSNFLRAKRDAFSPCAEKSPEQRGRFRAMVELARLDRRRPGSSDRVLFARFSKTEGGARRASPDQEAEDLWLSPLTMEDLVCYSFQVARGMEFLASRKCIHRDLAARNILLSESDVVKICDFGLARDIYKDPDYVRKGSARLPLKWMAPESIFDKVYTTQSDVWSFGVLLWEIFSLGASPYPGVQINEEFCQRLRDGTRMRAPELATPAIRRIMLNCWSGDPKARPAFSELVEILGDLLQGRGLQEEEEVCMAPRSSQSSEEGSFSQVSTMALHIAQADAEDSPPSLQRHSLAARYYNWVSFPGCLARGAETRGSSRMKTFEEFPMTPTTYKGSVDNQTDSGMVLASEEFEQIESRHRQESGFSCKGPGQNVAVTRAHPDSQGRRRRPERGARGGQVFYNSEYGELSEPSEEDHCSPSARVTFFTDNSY
Source text: as §1
Where [10] appears, read: FLT4/VEGFR3, [ATP] 5 µM, 500 nM.

“And” between values parts separate entries of the source, which are not always exact repeats. Identical values can stand only once. Like-named read-outs stand apart in the source and are kept apart here.

Chain of 363 human kinases (including Aurora A/B/C) (Homo sapiens, UniProt P08069) (P08069 31-1367): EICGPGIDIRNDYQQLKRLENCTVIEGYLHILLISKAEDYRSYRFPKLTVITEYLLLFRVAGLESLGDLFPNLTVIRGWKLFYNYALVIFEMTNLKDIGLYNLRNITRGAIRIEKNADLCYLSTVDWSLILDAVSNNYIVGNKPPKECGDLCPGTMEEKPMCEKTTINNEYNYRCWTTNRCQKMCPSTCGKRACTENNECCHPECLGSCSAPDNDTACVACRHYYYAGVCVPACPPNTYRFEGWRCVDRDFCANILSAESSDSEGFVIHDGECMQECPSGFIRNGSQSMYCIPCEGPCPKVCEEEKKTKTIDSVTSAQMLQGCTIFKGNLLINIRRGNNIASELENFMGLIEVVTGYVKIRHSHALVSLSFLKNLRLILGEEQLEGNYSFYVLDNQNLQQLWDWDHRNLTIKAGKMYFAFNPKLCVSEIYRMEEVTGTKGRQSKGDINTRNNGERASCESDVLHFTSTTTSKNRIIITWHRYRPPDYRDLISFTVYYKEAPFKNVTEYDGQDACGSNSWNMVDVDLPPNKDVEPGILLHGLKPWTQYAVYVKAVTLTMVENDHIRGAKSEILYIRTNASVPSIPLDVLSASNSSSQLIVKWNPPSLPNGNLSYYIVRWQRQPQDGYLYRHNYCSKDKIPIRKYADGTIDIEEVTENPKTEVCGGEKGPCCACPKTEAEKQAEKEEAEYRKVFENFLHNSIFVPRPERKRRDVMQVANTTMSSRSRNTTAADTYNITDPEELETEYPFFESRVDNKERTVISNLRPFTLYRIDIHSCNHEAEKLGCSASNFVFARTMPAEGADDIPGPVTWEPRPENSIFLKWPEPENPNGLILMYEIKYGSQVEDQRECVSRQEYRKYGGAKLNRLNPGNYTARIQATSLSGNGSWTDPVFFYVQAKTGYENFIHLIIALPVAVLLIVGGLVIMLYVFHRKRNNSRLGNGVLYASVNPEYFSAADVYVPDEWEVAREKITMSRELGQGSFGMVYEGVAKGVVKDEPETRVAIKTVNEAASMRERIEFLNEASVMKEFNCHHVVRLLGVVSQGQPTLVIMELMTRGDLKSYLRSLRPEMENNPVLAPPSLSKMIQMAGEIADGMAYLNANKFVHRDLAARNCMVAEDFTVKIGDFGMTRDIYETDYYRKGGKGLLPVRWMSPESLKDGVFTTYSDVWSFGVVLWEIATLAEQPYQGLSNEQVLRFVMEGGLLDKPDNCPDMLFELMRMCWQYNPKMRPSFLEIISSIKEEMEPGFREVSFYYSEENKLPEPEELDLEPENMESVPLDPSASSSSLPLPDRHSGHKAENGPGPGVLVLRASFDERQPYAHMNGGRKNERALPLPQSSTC
Chain of 363 human kinases (including Aurora A/B/C) (Homo sapiens, UniProt P27448) (P27448 whole entry): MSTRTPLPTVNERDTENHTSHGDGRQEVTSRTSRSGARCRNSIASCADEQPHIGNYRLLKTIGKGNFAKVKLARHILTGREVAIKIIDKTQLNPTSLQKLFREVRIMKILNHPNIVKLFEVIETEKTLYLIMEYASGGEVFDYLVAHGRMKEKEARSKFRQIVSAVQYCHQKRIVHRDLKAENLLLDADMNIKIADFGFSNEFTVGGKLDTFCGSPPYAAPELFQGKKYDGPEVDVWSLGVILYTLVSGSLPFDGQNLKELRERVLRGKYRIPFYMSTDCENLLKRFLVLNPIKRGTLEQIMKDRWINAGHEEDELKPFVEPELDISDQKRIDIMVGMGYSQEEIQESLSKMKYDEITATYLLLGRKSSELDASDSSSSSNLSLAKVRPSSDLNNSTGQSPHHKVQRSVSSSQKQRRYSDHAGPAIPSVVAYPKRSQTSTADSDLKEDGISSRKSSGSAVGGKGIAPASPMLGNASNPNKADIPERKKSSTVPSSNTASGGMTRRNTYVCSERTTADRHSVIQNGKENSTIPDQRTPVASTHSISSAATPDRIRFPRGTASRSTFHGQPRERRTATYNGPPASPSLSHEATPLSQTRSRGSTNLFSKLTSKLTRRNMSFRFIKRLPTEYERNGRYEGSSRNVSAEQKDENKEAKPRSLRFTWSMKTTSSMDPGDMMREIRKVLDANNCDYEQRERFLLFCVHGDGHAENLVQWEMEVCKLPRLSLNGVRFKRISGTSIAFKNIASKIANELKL

Turning to `O=C(c1cccc(Cl)c1F)N1CCN(Cc2cccc(Nc3nccs3)n2)CC1` [MK-8745], the “% Enzyme Activity (relative to DMSO controls)” value is reported as 124.49% in [1] (500 nM); 91.96% in test [2] (500 nM); 110.19% in test [3] (500 nM); 21.35% in test [4] (500 nM); 128.29% in test [5] (500 nM); 97.14% in test [6] (500 nM). In addition, the “% Enzyme Activity (relative to DMSO controls)” value in test [7] (500 nM) is 90.37%; in [8] (500 nM), 65.00%; in [9] (setting [10]), 87.71%. Moreover, the remaining activity at 0.5 µM in test [1] (500 nM) came to 126%; in test [2] (500 nM), 93%; in test [3] (500 nM) it was 111%; in test [4] (500 nM) it was 23%; in test [5] (500 nM), 130%; in test [6] (500 nM), 98.5%. Besides, the remaining activity at 0.5 µM in test [7] (500 nM) was determined as 91.9%; in [8] (500 nM), 66.7%; in [9] (setting [10]), 88.4%.
For the molecule `CCn1cc(-c2ccnc3[nH]c(-c4cccc(CN(C)C)c4)cc23)c(-c2ccc(NC(=O)N(C)C)cc2)n1` [GSK1070916], the remaining activity at 0.1 µM in test [1] was determined as 89.4%; in test [2] it was 97.6%; in test [3], 97.2%; in [4], 99%; in test [5], 59.1%; in [6], 85.4%. The remaining activity at 0.1 µM was 82.3% in test [7]; 97.9% in test [8]; 60.2% and 59.9% in test [9].
Consider `O=C(O)[C@]1(Cc2cccc(Nc3nccs3)n2)CC[C@@H](Oc2cccc(Cl)c2F)CC1` [MK-5108], for which the remaining activity at 0.1 µM in [1] is 98.7%; in test [2], 99%; in test [3], 98.4%; in test [4], 32.5%; in test [5], 153%; in test [6], 108%. In addition, the remaining activity at 0.1 µM was found to be 93.7% in test [7]; 81.1% in test [8]; 26.2% in [9] (FLT4/VEGFR3, [ATP] 5 µM, 100 nM). The remaining activity at 0.5 µM stood at 140% in test [1] (500 nM); 92.3% in test [2] (500 nM); 107% in test [3] (500 nM); 24.7% in test [4] (500 nM); 104% in test [5] (500 nM); 99% in [6] (500 nM). In addition, the remaining activity at 0.5 µM amounted to 63% in test [7] (500 nM), 43.9% in test [8] (500 nM) and 6.3% in [9] (setting [10]).

For the origin of these results see article PMC4685510, “A Cell Biologist’s Field Guide to Aurora Kinase Inhibitors” (Frontiers in Oncology, 2015).
